In one assay the target is T1, human TLR7 (Homo sapiens, UniProt Q9NYK1).
T1 construct: host or cells: HEK-Blue TLR7 cells (engineered human embryonic kidney cells)
T1 sequence (Q9NYK1 27-1049): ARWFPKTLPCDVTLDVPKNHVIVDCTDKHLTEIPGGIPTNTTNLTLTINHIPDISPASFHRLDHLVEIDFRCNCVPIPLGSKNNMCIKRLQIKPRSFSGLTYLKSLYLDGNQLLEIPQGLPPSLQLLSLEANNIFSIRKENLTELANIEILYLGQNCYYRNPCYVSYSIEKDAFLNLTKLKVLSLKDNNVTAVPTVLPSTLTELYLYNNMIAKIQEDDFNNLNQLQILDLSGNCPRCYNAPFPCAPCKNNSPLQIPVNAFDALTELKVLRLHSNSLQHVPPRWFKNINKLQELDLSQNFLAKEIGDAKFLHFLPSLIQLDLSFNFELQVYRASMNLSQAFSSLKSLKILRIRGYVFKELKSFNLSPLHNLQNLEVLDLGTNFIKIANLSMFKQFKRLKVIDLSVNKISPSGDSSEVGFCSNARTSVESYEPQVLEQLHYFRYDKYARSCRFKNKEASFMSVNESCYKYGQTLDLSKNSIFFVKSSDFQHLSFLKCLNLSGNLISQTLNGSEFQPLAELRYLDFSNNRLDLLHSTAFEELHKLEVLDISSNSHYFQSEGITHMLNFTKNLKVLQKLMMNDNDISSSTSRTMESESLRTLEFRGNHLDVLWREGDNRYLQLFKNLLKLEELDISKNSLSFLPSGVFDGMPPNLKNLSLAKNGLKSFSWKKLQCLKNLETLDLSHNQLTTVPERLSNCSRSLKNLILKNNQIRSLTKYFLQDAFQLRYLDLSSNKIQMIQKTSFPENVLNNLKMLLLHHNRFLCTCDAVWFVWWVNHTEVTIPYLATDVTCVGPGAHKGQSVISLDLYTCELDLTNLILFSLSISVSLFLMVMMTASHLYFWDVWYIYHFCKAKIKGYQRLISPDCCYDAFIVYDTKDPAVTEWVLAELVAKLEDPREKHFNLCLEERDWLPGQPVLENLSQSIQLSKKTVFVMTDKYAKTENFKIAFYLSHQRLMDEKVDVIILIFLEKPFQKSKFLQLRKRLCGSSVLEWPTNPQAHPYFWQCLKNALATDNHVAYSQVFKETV
Nature of the assay: Human TLR7 agonist activity reporter assay (HEK-Blue TLR7 cells, SEAP reporter). The assay is classed as cell-based. As to conditions: 18 h treatment. On the procedure: This procedure describes a method for assaying human TLR7 (hTLR7) agonist activity of the compounds disclosed in this specification.
HEK-Blue™ TLR7 cells were added to each well of a 384-well tissue-culture plate (15,000 cells per well) and incubated 16-18 h at 37° C., 5% CO2. Compounds (100 nl) were dispensed into wells containing the HEK-Blue™ TLR cells and the treated cells were incubated at 37° C., 5% CO2. After 18 h treatment ten microliters of freshly-prepared Quanti-Blue™ reagent (Invivogen) was added to each well, incubated for 30 min (37° C., 5% CO2) and SEAP levels measured using an Envision plate reader (OD=620 nm). The half maximal effective concentration values (EC50; compound concentration which induced a response halfway between the assay baseline and maximum) were calculated.

The next assay has as its system CD69. The assay is described as follows: Induction of CD69 in human whole blood. The assay is classed as cell-based. As to conditions: 17 h, CD69 surface staining, 100% set to 1 uM resiquimod. The procedure: The induction of Type I interferon (IFN) MX-1 genes and the B-cell activation marker CD69 are downstream events that occur upon activation of the TLR7 pathway. The following is a human whole blood assay that measures their induction in response to a TLR7 agonist.
Heparinized human whole blood was harvested from human subjects and treated with test TLR7 agonist compounds at 1 mM. The blood was diluted with RPMI 1640 media and Echo was used to predot 10 nL per well giving a final concentration of 1 uM (10 nL in 10 uL of blood). After mixing on a shaker for 30 sec, the plates were covered and placed in a 37° C. chamber for o/n=17 hrs. Fixing/lysis buffer was prepared (5×->1× in H2O, warm at 37° C.; Cat #BD 558049) and kept the perm buffer (on ice) for later use.
For surface markers staining (CD69): prepared surface Abs: 0.045 ul hCD14-FITC (ThermoFisher Cat #MHCD1401)+0.6 ul hCD19-ef450 (ThermoFisher Cat #48-0198-42)+1.5 ul hCD69-PE (cat #BD555531)+0.855 ul FACS buffer. Added 3 ul/well, spin1000 rpm for 1 min and mixed on shaker for 30 sec, put on ice for 30 mins. Stop stimulation after 30 minutes with 70 uL of prewarmed 1× fix/lysis buffer and use Feliex mate to resuspend (15 times, change tips for each plate) and incubate at 37C for 10 minutes.
Centrifuge at 2000 rpm for 5 minutes aspirate with HCS plate washer, mix on shaker for 30 sec and then wash with 70 uL in dPBS and pelleted 2×s (2000 rpm for 5 min) and 50 ul wash in FACS buffer pelleted 1×s(2000 rpm for 5 min). Mix on shaker for 30 sec. For Intracellular markers staining (MX-1): Add 50 ul of BD Perm buffer III and mix on shaker for 30 sec. Incubate on ice for 30 minutes (in the dark). Wash with 50 uL of FACS buffer 2× (spin @2300 rpm×5 min after perm) followed by mixing on shaker for 30 sec. Resuspended in 20 ul of FACS buffer containing MX1 antibody ( ) (4812)-Alexa 647: Novus Biologicals #NBP2-43704AF647) 20 ul FACS bf+0.8 ul hlgG+0.04 ul MX-1. Spin 1000 rpm for 1 min, mix on shaker for 30se and the samples were incubated at RT in the dark for 45 minutes followed by washing 2×FACS buffer (spin @2300 rpm×5 min after perm). Resuspend 20 ul (35 uL total per well) of FACS buffer and cover with foil and place in 4° C. to read the following day. Plates were read on iQuePlus. The results were loaded into toolset and IC50 curves are generated in curve master. The y-axis 100% is set to 1 uM of resiquimod.

Setting [1] is: Table A2, read-out: hTLR7 Agonism EC50.
Where [2] appears, read: Table A2, read-out: hWB CD69 EC50.
Where [3] appears, read: average where assay repeated, Table A1, read-out: hTLR7 Agonism EC50.
[4] abbreviates: average where assay repeated, Table A1, read-out: hWB CD69 EC50.

Read-outs that look alike come from different tables or passages of the source. Bounds are passed on as bounds.

What is called EC50 is the concentration giving half of the maximal effect. On to `CCC[C@@H](CCO)Nc1nc(N)nc2cnn(Cc3cc(CN4CC(O)C4)c(F)cc3OC)c12` [Compound 166, 1-({5-[(5-amino-7-{[(3S)-1-hydroxyhexan-3-yl]amino}-1H-pyrazolo[4,3-d]pyrimidin-1-yl)methyl]-2-fluoro-4-methoxyphenyl}-methyl)azetidin-3-ol], for which the EC50 came out at 116 nM on human TLR7 (setting [1]) and 34.2 nM with CD69 (setting [2]).
With `CCCCNc1nc(N)nc2cnn(Cc3cc(CNC4CC45CC5)ccc3OC)c12` (centres unmarked) [Compound 117, N7-butyl-1-({2-methoxy-5-[({spiro[2.2]pentan-1-yl}amino)methyl]phenyl}methyl)-1H-pyrazolo[4,3-d]pyrimidine-5,7-diamine], the 50% effective concentration (EC50) at human TLR7 (setting [3]) worked out at 562 nM; with CD69 (setting [4]), 156 nM.
As for `CCCCNc1nc(N)nc2cnn(Cc3cc(CNC)ccc3OC)c12` [Compound 132, N7-butyl-1-(2-methoxy-5-((methylamino)methyl)benzyl)-1H-pyrazolo[4,3-d]pyrimidine-5,7-diamine], the half-maximal effective concentration (EC50) turned out to be 187 nM on human TLR7 (setting [3]) and 10.9 nM with CD69 (setting [4]).
In the same order, the values of `COc1ccc(CN2CC(OC)C2)cc1Cn1ncc2nc(N)nc(NCC[C@H](O)C3CC3)c21` [Compound 160, (1S)-3-{[5-amino-1-({2-methoxy-5-[(3-methoxy-azetidin-1-yl)methyl]phenyl}-methyl)-1H-pyrazolo[4,3-d]pyrimidin-7-yl]amino}-1-cyclopropylpropan-1-ol] are 740 nM and 151 nM.
For the compound `CCC[C@@H](CCO)Nc1nc(N)nc2cnn(Cc3cc(CNC)c(F)cc3OC)c12` [Compound 169, (3S)-3-{[5-amino-1-({4-fluoro-2-methoxy-5-[(methylamino)-methyl]phenyl}methyl)-1H-pyrazolo[4,3-d]pyrimidin-7-yl]amino}hexan-1-ol], the concentration giving a half-maximal response (EC50) at human TLR7 (setting [1]) was 43.5 nM; with CD69 (setting [2]) it was 6.2 nM.
In the case of `CCCCNc1nc(N)nc2cnn(Cc3cc(CN(C)C(=O)CC(C)(C)O)ccc3OC)c12` [Compound 148, N-[(3-{[5-amino-7-(butyl-amino)-1H-pyrazolo[4,3-d]pyrimidin-1-yl]methyl}-4-methoxyphenyl)methyl]-3-hydroxy-N,3-dimethyl-butanamide], the concentration giving a half-maximal response (EC50) on human TLR7 (setting [3]) is 665 nM; with CD69 (setting [4]), no less than 1000 nM.
In the same order, the values of `CCCCNc1nc(N)nc2cnn(Cc3cc(CNC4COC4)ccc3OC)c12` [Compound 122, N7-butyl-1-[(2-methoxy-5-{[(oxetan-3-yl)amino]-methyl}phenyl)methyl]-1H-pyrazolo[4,3-d]pyrimidine-5,7-diamine] are 548 nM and 225 nM.
In the same order, the values of `CCCCNc1nc(N)nc2cnn(Cc3cc(CNCC4(N)CCC4)ccc3OC)c12` [Compound 129, 1-{[5-({[(1-aminocyclo-butyl)methyl]amino}methyl)-2-methoxyphenyl]methyl}-N7-butyl-1H-pyrazolo[4,3-d]pyrimidine-5,7-diamine] are 587 nM and 60.9 nM.
In the same order, the values of `CCC[C@@H](CCO)Nc1nc(N)nc2c(C)nn(Cc3cc(CN4CCN(CCO)CC4)ccc3OC)c12` [Compound 159, (3S)-3-({5-amino-1-[(5-{[4-(2-hydroxyethyl)piperazin-1-yl]methyl}-2-methoxyphenyl)methyl]-3-methyl-1H-pyrazolo[4,3-d]pyrimidin-7-yl}amino)hexan-1-ol] are 98.6 nM and 37.1 nM.
Turning to `CCCCNc1nc(N)nc2cnn(Cc3cc(C#N)ccc3OC)c12` [Compound 145, 3-{[5-amino-7-(butyl-amino)-1H-pyrazolo[4,3-d]pyrimidin-1-yl]methyl}-4-methoxybenzonitrile], the figures for the EC50 on human TLR7 (setting [3]) and in the assay with CD69 (setting [4]) were 402 nM and 942 nM, respectively.
Taken in the same sequence, the figures for `CCC[C@@H](CCO)Nc1nc(N)nc2c(C)nn(Cc3cc(CNC4CCOCC4)ccc3OC)c12` [Compound 162, (3S)-3-({5-amino-1-[(2-methoxy-5-{[(oxan-4-yl)amino]methyl}phenyl)methyl]-3-methyl-1H-pyrazolo[4,3-d]pyrimidin-7-yl}amino)-hexan-1-ol] were 294 nM and 90.3 nM.
For `CCCCNc1nc(N)nc2cnn(Cc3cc(CN4CCN(C5CCC5)CC4)ccc3OC)c12` [Compound 130, N7-butyl-1-({5-[(4-cyclobutylpiperazin-1-yl)methyl]-2-methoxy-phenyl}methyl)-1H-pyrazolo[4,3-d]pyrimidine-5,7-diamine], the EC50 turned out to be 49.9 nM on human TLR7 (setting [3]) and 516 nM in the assay with CD69 (setting [4]).
On to `CCC[C@@H](CCO)Nc1nc(N)nc2cnn(Cc3cc(CN4CCN(CCO)CC4)c(F)cc3OC)c12` [Compound 168, (3S)-3-({5-amino-1-[(4-fluoro-5-{[4-(2-hydroxyethyl)piperazin-1-yl]methyl}-2-methoxyphenyl)-methyl]-1H-pyrazolo[4,3-d]pyrimidin-7-yl}amino)hexan-1-ol], for which the EC50 on human TLR7 (setting [1]) is 62.8 nM; with CD69 (setting [2]), 39.2 nM.
Consider `CCCCNc1nc(N)nc2cnn(Cc3cc(CN4CC(OC)C4)ccc3OC)c12` [Compound 105, N7-butyl-1-({2-methoxy-5-[(3-methoxyazetidin-1-yl)methyl]phenyl}methyl)-1H-pyrazolo[4,3-d]pyrimidine-5,7-diamine], for which the EC50 on human TLR7 (setting [3]) was found to be 124 nM; in the assay on CD69 (setting [4]), 90.9 nM.
`CCCCNc1nc(N)nc2cnn(Cc3cc(CNC4(C)CCOCC4)ccc3OC)c12` [Compound 119, N7-butyl-1-[(2-methoxy-5-{[(4-methyloxan-4-yl)amino]methyl}phenyl)methyl]-1H-pyrazolo[4,3-d]pyrimidine-5,7-diamine]: the EC50 on human TLR7 (setting [3]) came to 529 nM; with CD69 (setting [4]), 227 nM.
Take `CCC[C@@H](CCO)Nc1nc(N)nc2cnn(Cc3cc(CN4CCNCC4)ccc3OC)c12` [Compound 155, (3S)-3-{[5-amino-1-({2-methoxy-5-[(piperazin-1-yl)-methyl]phenyl}methyl)-1H-pyrazolo[4,3-d]pyrimidin-7-yl]amino}hexan-1-ol]: the 50% effective concentration (EC50) at human TLR7 (setting [3]) is 150 nM; in the assay with CD69 (setting [4]) it was 129 nM.
